The text below walks through data of ChEMBL document CHEMBL1137256, “Iminosugars as potential inhibitors of glycogenolysis: structural insights into the molecular basis of glycogen phosphorylase inhibition” (J Med Chem, 2006).

Test [1] concerns the target T1, Glycogen phosphorylase, liver form (Rattus norvegicus, UniProt P09811).
T1 sequence (P09811 whole entry): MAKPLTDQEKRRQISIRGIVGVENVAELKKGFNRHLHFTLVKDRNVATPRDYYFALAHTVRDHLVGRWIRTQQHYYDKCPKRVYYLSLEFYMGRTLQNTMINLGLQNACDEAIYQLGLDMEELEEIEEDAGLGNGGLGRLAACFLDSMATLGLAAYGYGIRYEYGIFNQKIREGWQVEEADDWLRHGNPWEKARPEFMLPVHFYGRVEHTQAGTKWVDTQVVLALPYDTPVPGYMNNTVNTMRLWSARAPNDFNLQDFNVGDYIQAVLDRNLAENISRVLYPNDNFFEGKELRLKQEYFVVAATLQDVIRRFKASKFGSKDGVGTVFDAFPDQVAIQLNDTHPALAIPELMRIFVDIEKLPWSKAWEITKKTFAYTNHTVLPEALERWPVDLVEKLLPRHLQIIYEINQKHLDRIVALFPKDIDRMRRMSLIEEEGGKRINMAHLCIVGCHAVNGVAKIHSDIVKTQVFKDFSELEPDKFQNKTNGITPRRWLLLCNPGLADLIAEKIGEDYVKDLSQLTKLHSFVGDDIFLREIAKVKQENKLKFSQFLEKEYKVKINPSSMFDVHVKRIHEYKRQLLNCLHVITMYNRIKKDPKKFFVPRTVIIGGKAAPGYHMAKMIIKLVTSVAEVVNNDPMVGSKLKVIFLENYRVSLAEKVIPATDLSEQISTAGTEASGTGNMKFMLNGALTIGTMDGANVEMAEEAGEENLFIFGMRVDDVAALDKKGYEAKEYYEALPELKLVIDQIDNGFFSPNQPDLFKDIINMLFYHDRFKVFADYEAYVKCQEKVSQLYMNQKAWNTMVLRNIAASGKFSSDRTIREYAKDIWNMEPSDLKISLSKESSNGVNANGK
Briefly: Inhibition of phosphorylated form of rat liver glycogen phosphorylase.

Test [2] deals with Hepatocyte. The test is described as follows: cells. Particulars: Homo sapiens.
Description: Inhibition of glucagon-stimulated glycogen degradation in hepatocytes
For test [3], the system named is Hepatocyte. Briefly: cells. The conditions noted are these: Homo sapiens. This is another data set of the same source.
Description: Inhibition of glycogen degradation in hepatocytes
The species named for test [4] is Mus musculus. Briefly: Antihyperglycemic activity in obese mouse. The format is functional, organism-based.
Test [5] concerns Liver. The test is described as follows: Inhibition of liver […]. The format is functional, tissue-based. Particulars: Homo sapiens.

pIC50: −log10 of the molar value. The source made the active and inactive calls. The calls are words filed in the database; no cut-off is given here.

In general, pIC50 refers to −log10 of the IC50, conventionally taken in molar units. Read a high pIC50 as a low IC50. For the compound `OC[C@H]1CN(CCCc2ccccc2)C[C@@H](O)[C@@H]1O`, the negative-log IC50 (pIC50) in test [1] is 5.91.

For `OC[C@H]1CNC[C@@H](O)[C@@H]1O` [AFEGOSTAT], the figures for the negative-log IC50 (pIC50) in test [2] and in test [3] were 5.70 and 5.52, respectively. As to `OC[C@H]1NC[C@@H](O)[C@@H]1O`, the result in test [4] and in test [5] was Active.
